Converted amounts (≈) assume the structure as drawn.
Assays:
[1] = molecular target: T1, acetylcholinesterase enzyme (Electropardus electricous type VI-S) (Electrophorus electricus, UniProt O42275); experiment: AChE bioautographic assay (TLC); assay type: biochemical; set-up: key: -: not active; +: slight inhibition; ++++: strong inhibition; details: intensity of white bands
T1 construct: purchased Sigma-Aldrich, St. Louis, MO, USA type VI-S (catalogue number not given)
Method: The bioautographic assay was performed by thin layer chromatography (TLC) according to the method proposed by Marston, Kissling and Hostettman. The extracts were solubilized in methanol (Merck) at 20 mg/mL, and a portion of 10 μL of this solution was applied on a TLC plate (silica gel 60 F254, Merck, Darmstadt, Germany), which was eluted with CHCl3:MeOH (9:1). The acetylcholinesterase enzyme (Electropardus electricous type VI-S, Sigma-Aldrich, St. Louis, MO, USA) solution was prepared by diluting 1 KU of the enzyme in 30 mL of Tris/HCl buffer, pH 7.8, with the addition of 30 mg of bovine serum albumin (BSA). The enzyme solution was sprayed on the TLC plate and incubated in a humid chamber at 37 °C for 20 min. The substrate solution was prepared using 1-naphthyl acetate (2.5 mg/mL) and Fast Blue B salt (2.5 mg/mL), and sprayed on the TLC plate after the incubation period. […] The result was expressed by the intensity of the white bands observed.

[2] = molecular target: T2, AChE from Electropardus electricous type VI-S (Electrophorus electricus, UniProt O42275); experiment: AChE inhibition microplate assay (Ellman); assay type: biochemical; details: 400 μg/mL; read-out: Inhibition of AChE Microplate (%I)
T2 construct: purchased Sigma-Aldrich, St. Louis, MO, USA type VI-S (catalogue number not given)
T2 sequence (O42275 24-633): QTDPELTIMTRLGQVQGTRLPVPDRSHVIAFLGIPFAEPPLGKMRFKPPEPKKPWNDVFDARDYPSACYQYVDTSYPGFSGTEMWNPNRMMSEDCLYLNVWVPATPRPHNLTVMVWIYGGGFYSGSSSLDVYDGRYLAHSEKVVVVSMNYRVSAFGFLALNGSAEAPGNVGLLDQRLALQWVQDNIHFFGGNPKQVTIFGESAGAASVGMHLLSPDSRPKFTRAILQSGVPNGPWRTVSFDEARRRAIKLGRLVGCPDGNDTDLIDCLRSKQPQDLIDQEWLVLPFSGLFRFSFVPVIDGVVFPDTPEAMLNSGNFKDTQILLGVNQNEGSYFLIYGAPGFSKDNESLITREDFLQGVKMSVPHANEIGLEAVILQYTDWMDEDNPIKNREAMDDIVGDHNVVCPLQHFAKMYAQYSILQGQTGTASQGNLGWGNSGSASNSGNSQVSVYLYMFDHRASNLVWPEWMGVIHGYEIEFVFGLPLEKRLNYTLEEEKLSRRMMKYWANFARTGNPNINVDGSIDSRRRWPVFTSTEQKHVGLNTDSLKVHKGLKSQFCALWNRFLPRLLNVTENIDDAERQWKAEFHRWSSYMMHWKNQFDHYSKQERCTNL
Method: AChE inhibition assay was performed on a 96-well microplate according to Ellman’s method with adaptations. Initially, the extracts were solubilized on MeOH, at 20 mg/mL, and diluted to 4 mg/mL using Tris/HCl buffer solution (50 mM, pH 8.0). A portion of 25 µL of the samples (4 mg/mL) were added to the wells of the microplate, as well as 50 μL of 0.1% BSA solution in Tris/HCl Buffe (pH 8.0), 125 μL of DTNB in Tris/HCl (3 mM) containing NaCl (10 mM) and MgCl2 (20 mM). Subsequently, 25 μL of the ATCI aqueous solution (15 mM) was added to all wells. Then, a background reading was performed at 405 nm using microplate reader (Multiskan Go, Thermo Scientific, Whaltham, MA, USA). The enzymatic reaction was initiated after the addition of 25 µL of AChE solution (AChE from Electropardus electricous type VI-S, 0.2 U/mL, Sigma-Aldrich, St. Louis, MO, USA) in Tris/HCl buffer (50 mM, pH 8.0) containing 0.1% BSA. The kinetic cycle was performed in a period of 25 min, with readings at 5 min intervals, at 405 nm. Physostigmine (Eserine, Sigma, St. Louis, MO, USA) was employed as the positive control. […] The assay was performed in triplicate and the % of inhibition (%I) was calculated according to the following equation: %I = [(a − b)/a] × 100, where a = ΔA/min of control; b = ΔA/min of test sample; ΔA = change in absorbance between time x and time zero. […]

[3] = Thiobarbituric acid reactive substances (TBARS) assay; set-up: species or system bovine
Method: The evaluation of antioxidant activity using the TBARS assay, with adaptations. Briefly, the samples were solubilized in methanol (50.0 to 31.25 μg/mL) and a portion of 25 μL of each extract solution was added to 10 mL test tubes in triplicate (two reaction tubes and one control). The tubes corresponding to the blank, negative and positive controls were prepared by adding 25 μL of deionized water, MeOH or propylgalate (Sigma, St. Louis, MO, USA, 0.1 mM), respectively. The phospholipid liposomes were prepared using bovine brain extract type VII (Sigma Aldrich, St. Louis, MO, USA, 10 mg/mL) in phosphate buffered saline (PBS) solution. The suspension was subjected to an ultrasonic bath until the formation of the liposomes. […] The butanolic phase was removed and transferred to a 96-well microplate, and the absorbance was recorded on a Multiskan Go microplate reader (Thermo Scientific, Whaltham, MA, USA) at 532 nm. The percentage of inhibition (%I) of lipid peroxidation was calculated as: %I = ((AC − AS)/AC) × 100 where AC is the absorbance of control, AS is the absorbance of samples. Assays were performed in triplicate and IC50 values were determined by non-linear regression using GraphPad Prism, version 6.0 (GraphPad Software, San Diego, CA, USA). […]

[4] = DPPH radical scavenger activity
Method: The evaluation of the antioxidant activity using the 2,2-diphenyl-1-picrylhydrazyl radical (DPPH) was performed according to the method proposed by Mensor et al., with adaptations. The samples were dissolved in MeOH at concentrations ranging from 1.0 to 200 μg/mL. A portion of 250 μL of each sample was added to a 96-well microplate. MeOH and pyrogallol (50 µg/mL) were employed as negative and positive controls, respectively. Then, 100 μL of either MeOH (blank wells) or DPPH solution (120 μg/mL, reaction wells) was added to the microplate. The reading was performed on a microplate reader (EL808IU-Biotek model, Biotek, Winooski, VT, USA), at 5 min intervals for a total of 45 min, at 515 nm. The percentage of radical scavenging activity (%RSA) was calculated using the following equation: % RSA = ((AC − AS)/AC) × 100, where AC is the absorbance of control and AS is the absorbance of samples taken at 35 min. The results were expressed in EC50 (effective concentration for 50% capture of the radicals) determined by non-linear regression using GraphPad Prism, version 6.0.

[5] = β-Carotene/linoleic acid co-oxidation assay
Method: The evaluation of the antioxidant activity using the β-carotene/linoleic acid co-oxidation system was performed according to Duarte-Almeida et al., with adaptations. The extracts were solubilized in MeOH (2.2 mg/mL) and further diluted to concentrations ranging from 3.125 to 200 μg/mL. An aliquot of 25 μL of sample solutions were added in the 96-well microplate. 25 mg of linoleic acid and 100 mg Tween 20 (Sigma, St. Louis, MO, USA) were added to a round-bottom flask containing 1 mL of a β-carotene solution (1 mg/mL, Sigma, St. Louis, MO, USA) in chloroform. The latter was removed in a rotatory evaporator and, then, 50 mL of aerated water was added to the flask, affording the β-carotene emulsion. Portions of 250 μL of the freshly prepared emulsion were added to the wells corresponding to the odd columns of a microplate. […] Readings were performed immediately at 470 nm. After the first reading, the microplate was incubated at 45 °C and the kinetic cycle was performed with readings at 15 min intervals for a total of 120 min. The antioxidant activity was expressed as % of inhibition of lipid peroxidation (%I), using the formula (I% = Ac (initial abs − Final abs) − Aam (final abs − Initial abs)/Ac × 100). Assays were performed in triplicate and IC50 values were determined by non-linear regression using GraphPad Prism, version 6.0 (GraphPad Software, San Diego, CA, USA).

AChE [6] = test system: AChE; set-up: method as in Itoh et al. [85]; details: 3 mg/kg; ref Itoh et al. [85]; cited from earlier work
AChE [7] = test system: AChE; set-up: method as in El-Hassan et al. [86]; details: ref El-Hassan et al. [86]; cited from earlier work

T1 sequence (O42275 24-633): as above

CNC(=O)Oc1ccc2c(c1)[C@]1(C)CCN(C)[C@@H]1N2C [Physostigmine, reference compound]
Inhibition of AChE TLC [1]: ++++
inhibition at 400 µg/mL [2]: 89.8 ± 1.16%

CCCOC(=O)c1cc(O)c(O)c(O)c1 [Propylgalate, propylgalate, reference compound]
Antioxidant Activity (IC50-µg/mL) TBARS Assay [3]: <20 µg/mL

Oc1cccc(O)c1O [Pyrogallol, pyrogallol, reference compound]
Antioxidant Activity (IC50-µg/mL) DPPH Radical Sequestration [4]: 1.14 ± 0.15 µg/mL

O=c1c(O)c(-c2ccc(O)c(O)c2)oc2cc(O)cc(O)c12 [Quercetin, quercetin, reference compound]
Antioxidant Activity (IC50-µg/mL) β-Carotene/linoleic Acid [5]: 0.3 ± 0.1 µg/mL

COc1cc2c(c(OC)c1OC)-c1c(cc(OC)c(OC)c1OC)C[C@](C)(O)[C@@H](C)C2 [Schisandrin]
activity in vivo (AChE [6]): active

COc1cc([C@H]2OC[C@H]3[C@@H]2CO[C@@H]3c2cc(OC)c(O)c(OC)c2)cc(OC)c1O [Syringaresinol]
IC50 AChE inhibition in vitro (AChE [7]): 200 µg/mL (≈ 478 µM)
